Source: patent US20220282271A1, “HERBICIDE RESISTANT PLANTS AND METHODS OF MAKING AND USING” (OFFICE OF INNOVATION ADVANCEMENT AND COMMERCIALIZATION, priority 2019, published 2022)
Read-outs that look alike come from different tables or passages of the source.

Tests used:
[1] = molecular target: T1, recombinant variant E. indica PPO1 A212T (Eleusine indica, UniProt A0A6G5XNV7, A212T); assay: In vitro PPO enzyme activity inhibition, variant PPO1 A212T; format: biochemical; conditions: for inhibition at 10 µM: read-out: Variant E. indica PPO1 A212T % inhibition
From the text: (§1) Effects of A212T substitution were studied using the E. indica backbone. The wild-type E. indica PPO1 and the E. indica PPO1 A212T variants were synthesized de novo and subcloned into pRSetB plasmid (Invitrogen, Carlsbad, Calif.). The complete description of expression and purification of E. indica PPO1 and E. indica PPO1 A212T variant proteins were referenced to the method described for PPO2 by Rangani et al. (2019, Frontiers in Plant Sci., 10:568). Six PPO inhibitors, belonging to five different chemical families, were evaluated on the PPO enzyme activity at a concentrations ranging from 5.00×10^−5M to 5.12×10^−12M. Oxadiazon, sulfentrazone, saflufenacil and lactofen are from the class of oxadiazole, triazolinone, pyrimidinedione, and diphenyl ether, respectively. Flumioxazin and trifludimoxazin are from the same chemical family, N-phenylphthalimide. […] The assay was replicated twice.

[2] = tested on: Eleusine indica biotypes (S, R1, R2); assay: Herbicide rate screening assay (greenhouse, foliar-applied, visual injury); format: in vivo; conditions: for I50, estimated rate required to reduce Eleusine indica biotype by 50% (Visual Control/Injury) / I90, estimated rate required to reduce Eleusine indica biotype by 90% (Visual Control/Injury): injury scores 14 days after treatment; for Parameter estimate a of sigmoidal model y = a/(1 + exp(−(x − x0)/b)) for percent injury / Parameter estimate b of sigmoidal model y = a/(1 + exp(−(x − x0)/b)) for percent injury / Parameter estimate x0 of sigmoidal model y = a/(1 + exp(−(x − x0)/b)) for percent injury: x = log-transformed herbicide rate (kg/ha), 14 DAT
From the text: Three E. indica biotypes from different locations were used in this study. The R1 biotype was collected in Country Club of Virginia, Richmond, Va., and the R2 biotype was from River Bend Golf, New Bern, N.C. These two biotypes were previous confirmed resistant to preemergence application of oxadiazon, but have not been screened to other PPO inhibitors. The S biotype was collected from the Alabama Agricultural Experiment Station, Plant Breeding Unit, Tallassee, Ala., which was confirmed susceptible to PPO inhibitors. Seeds of the mature plants were harvested, air dried and stored in the 4° C. freezer until planted in the greenhouse.
Greenhouse conditions were 30±3° C. at day/night temperature and ˜70% average relative humidity. The E. indica seeds were placed on the soil surface and lightly covered with sand in 28 cm*20 cm flats and watered as needed daily to ensure germination. Two weeks after emergence, seedlings were separated and transplanted to in individual 10-cm pots (volumes=0.5 L). Pots were filled with surface horizon of Marvyn sandy loam (fine-loamy, kaolinitic, thermic Typic Kanhapludults) soil with pH 6.4 and 1.2% organic matter. The plants were irrigated three times daily for 2 min with overhead irrigation and fertilized once at one week after transplanting at approximately 50 kg N ha^−1 with Scott's Miracle-Gro All-Purpose fertilizer (The Scotts Miracle-Gro Co. Marysville, Ohio). Plants were 5-10 cm in height with 3-5 tillers in size at the time of herbicide treatment.
Herbicide treatments were foliar-applied at 280 L/ha using an enclosed spray chamber with a single 8002E nozzle (TeeJet Spray Systems Co, Wheaton, Ill.) at 32 PSI. Four herbicides were selected for the experiment: oxadiazon (Ronstar FLO, Bayer Environmental Sci., Research Triangle Park, N.C.), sulfentrazone (Dismiss, FMC Corporation, Philadelphia, Pa.), flumioxazin (Sureguard, Valent Corp., Walnut Creek, Calif.) and lactofen (Cobra, Valent Corp., Walnut Creek, Calif.). All the herbicides are from different herbicide chemical families of PPO inhibitors: oxadiazoles, triazolinone, N-phenylphthalimide and diphenyl ether, respectively. Herbicides were applied at 7 different rates based on each herbicide label rate: oxadiazon ranging from 0.14 to 8.96 kg/ha, sulfentrazone from 0.07 to 4.50 kg/ha, flumioxazin from 0.08 to 5.70 kg/ha, and lactofen from 0.029 to 1.75 kg/ha. A non-treated control (0 kg/ha) was included. 192 plants of each biotype were tested and experiments were conducted as completely random design, three replications for two runs.
The visual injury rating scores per plant at 14 days after treatment (DAT) were recorded, where the visual injury rating scores were based on a 0 to 100 scale, which 0 is equated to no phytotoxicity and 100 is equated to complete control. Data subjected to ANOVA analysis at a significance level of P<0.05 using the PROC GLM procedure of SAS 9.4 (SAS Institute Inc., Cary, N.C.). All the herbicide rates were log transformed to make equal spacing between the herbicide treatments in order to facilitate regression analysis. The non-treated control was transformed to equal spacing based on the log rates of each herbicide, respectively. Data were fitted to a sigmoidal model using SigmaPlot 10.2 (Systat Software Inc., London, UK) using a sigmoidal function (Equation 1).
y=a/(1+e^(−((x−x0)/b))) (1)
In this fit sigmoidal model, where y represents E. indica visual damage relative to non-treated control (%), x represents the log-transformed herbicide rates (kg/ha), three parameters (a, b, x0) represents the y intercept.

[3] = molecular target: T1, recombinant variant E. indica PPO1 A212T; assay: In vitro PPO enzyme activity inhibition, variant PPO1 A212T; format: biochemical; conditions: highest herbicide concentration 10^−5 M
[4] = molecular target: T2, recombinant wild-type E. indica PPO1 (Eleusine indica, UniProt A0A6G5XNV7); assay: In vitro PPO enzyme activity inhibition, wild-type PPO1; format: biochemical; conditions: for Wild-type E. indica PPO1 % inhibition / inhibition at 10 µM: highest herbicide concentration 10^−5 M
T2 sequence (A0A6G5XNV7 1-529): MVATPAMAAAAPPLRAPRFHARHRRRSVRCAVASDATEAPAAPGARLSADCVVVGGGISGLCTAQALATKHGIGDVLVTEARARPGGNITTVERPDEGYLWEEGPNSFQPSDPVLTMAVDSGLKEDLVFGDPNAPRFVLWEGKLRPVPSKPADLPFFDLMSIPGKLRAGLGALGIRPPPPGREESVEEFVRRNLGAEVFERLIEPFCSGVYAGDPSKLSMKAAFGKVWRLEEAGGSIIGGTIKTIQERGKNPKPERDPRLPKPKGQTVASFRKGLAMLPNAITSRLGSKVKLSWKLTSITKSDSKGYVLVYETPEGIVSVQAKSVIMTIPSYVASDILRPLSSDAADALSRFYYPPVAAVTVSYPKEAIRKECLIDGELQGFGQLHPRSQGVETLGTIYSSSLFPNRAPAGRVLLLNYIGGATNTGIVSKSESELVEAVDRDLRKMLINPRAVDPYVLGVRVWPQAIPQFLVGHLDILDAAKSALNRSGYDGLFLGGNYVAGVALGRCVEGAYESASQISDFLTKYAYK
From the text: as §1, with “Six PPO inhibitors, belonging to five different chemical families, were evaluated on the PPO enzyme activity at a concentrations ranging from 5.00×10^−5M to 5.12×10^−12M.” left out

[5] = recombinant enzyme, in vitro, read-out: Wild-type E. indica PPO1 sensitivity [IC50]

T1 sequence (A0A6G5XNV7 entry or part of it A212T): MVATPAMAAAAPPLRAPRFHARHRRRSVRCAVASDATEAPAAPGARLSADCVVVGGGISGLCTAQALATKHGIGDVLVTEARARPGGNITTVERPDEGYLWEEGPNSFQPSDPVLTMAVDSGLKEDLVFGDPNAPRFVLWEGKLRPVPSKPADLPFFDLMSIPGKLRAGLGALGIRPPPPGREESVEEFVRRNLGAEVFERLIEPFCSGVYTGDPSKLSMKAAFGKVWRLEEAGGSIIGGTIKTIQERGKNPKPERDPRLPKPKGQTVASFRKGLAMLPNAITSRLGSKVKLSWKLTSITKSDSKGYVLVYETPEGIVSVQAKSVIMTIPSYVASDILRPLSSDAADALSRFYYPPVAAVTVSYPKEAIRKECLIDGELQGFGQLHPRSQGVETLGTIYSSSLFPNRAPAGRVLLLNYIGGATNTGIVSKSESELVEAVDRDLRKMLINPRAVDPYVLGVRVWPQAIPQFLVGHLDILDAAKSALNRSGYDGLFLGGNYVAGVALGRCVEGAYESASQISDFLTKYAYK

| Structure (SMILES) | IC50 [1] [µM] | inhibition at 10 µM [1] [%] | I50, estimated rate required to reduce Eleusine indica biotype by 50% (Visual Control/Injury) ([2]; R1 biotype) [kg ha^−1] | I90, estimated rate required to reduce Eleusine indica biotype by 90% (Visual Control/Injury) ([2]; R1 biotype) [kg ha^−1] | Parameter estimate a of sigmoidal model y = a/(1 + exp(−(x − x0)/b)) for percent injury ([2]; R1 biotype) | Parameter estimate b of sigmoidal model y = a/(1 + exp(−(x − x0)/b)) for percent injury ([2]; R1 biotype) | Parameter estimate x0 of sigmoidal model y = a/(1 + exp(−(x − x0)/b)) for percent injury ([2]; R1 biotype) | I50, estimated rate required to reduce Eleusine indica biotype by 50% (Visual Control/Injury) ([2]; R2 biotype) [kg ha^−1] | I90, estimated rate required to reduce Eleusine indica biotype by 90% (Visual Control/Injury) ([2]; R2 biotype) [kg ha^−1] | Parameter estimate a of sigmoidal model y = a/(1 + exp(−(x − x0)/b)) for percent injury ([2]; R2 biotype) | Parameter estimate b of sigmoidal model y = a/(1 + exp(−(x − x0)/b)) for percent injury ([2]; R2 biotype) | Parameter estimate x0 of sigmoidal model y = a/(1 + exp(−(x − x0)/b)) for percent injury ([2]; R2 biotype) | I50, estimated rate required to reduce Eleusine indica biotype by 50% (Visual Control/Injury) ([2]; S biotype) [kg ha^−1] | I90, estimated rate required to reduce Eleusine indica biotype by 90% (Visual Control/Injury) ([2]; S biotype) [kg ha^−1] | Parameter estimate a of sigmoidal model y = a/(1 + exp(−(x − x0)/b)) for percent injury ([2]; S biotype) | Parameter estimate b of sigmoidal model y = a/(1 + exp(−(x − x0)/b)) for percent injury ([2]; S biotype) | Parameter estimate x0 of sigmoidal model y = a/(1 + exp(−(x − x0)/b)) for percent injury ([2]; S biotype) | Variant E. indica PPO1 A212T % inhibition [3] [%] | IC50 [4] [µM] | inhibition at 10 µM [4] [%] | other results |
| --- | --- | --- | --- | --- | --- | --- | --- | --- | --- | --- | --- | --- | --- | --- | --- | --- | --- | --- | --- | --- | --- |
| C#CCN1C(=O)COc2cc(F)c(N3C(=O)C4=C(CCCC4)C3=O)cc21 [Flumioxazin, flumioxazin] | 0.0134 | > 90 | 0.08 | 0.10 | 96.53 | 0.04 | −1.11 | 0.08 | 0.10 | 96.81 | 0.04 | −1.11 | 0.08 | 0.09 | 98.00 | 0.02 | −1.09 | >90 | 0.0167 | > 90 | Wild-type E. indica PPO1 % inhibition [4]: >90% |
| CCOC(=O)C(C)OC(=O)c1cc(Oc2ccc(C(F)(F)F)cc2Cl)ccc1[N+](=O)[O-] (stereo not drawn) [Lactofen, lactofen] | 0.362 | > 90 | 0.04 | 0.51 | 84.65 | 0.29 | −1.44 | 0.06 | 0.50 | 89.20 | 0.30 | −1.31 | 0.03 | 0.17 | 90.29 | 0.13 | −1.52 | >90 | 0.0264 | > 90 | Wild-type E. indica PPO1 % inhibition [4]: >90% |
| C#CCN1C(=O)C(F)(F)Oc2cc(F)c(-n3c(=O)n(C)c(=S)n(C)c3=O)cc21 [Trifludomoxazin, trifludimoxazin] | – | – | – | – | – | – | – | – | – | – | – | – | – | – | – | – | – | >90 | – | – | IC50 ([1]; recombinant enzyme, in vitro, read-out: Variant E. indica PPO1 A212T sensitivity [IC50]): 0.0265 µM; Wild-type E. indica PPO1 % inhibition [4]: >90%; IC50 [4, 5]: 0.0171 µM |
| CC(C)N(C)S(=O)(=O)NC(=O)c1cc(-n2c(=O)cc(C(F)(F)F)n(C)c2=O)c(F)cc1Cl [Saflufenacil, saflufenacil] | 0.449 | > 90 | – | – | – | – | – | – | – | – | – | – | – | – | – | – | – | – | – | > 90 | IC50 [4, 5]: 0.0194 µM |
| Cc1nn(-c2cc(NS(C)(=O)=O)c(Cl)cc2Cl)c(=O)n1C(F)F [Sulfentrazone, sulfentrazone] | 1.87 | 76 | 0.15 | 0.32 | 95.12 | 0.12 | −0.84 | 0.18 | 0.63 | 100.90 | 0.25 | −0.73 | 0.08 | 0.19 | 98.21 | 0.16 | −1.10 | – | 0.275 | > 90 | – |
